Where a name gives a salt, the structure may show the parent alone.

Experiment [1] deals with BT474 (human breast carcinoma). In words: In vitro tumor cell proliferation assay (Cell Titer-Glo luminescent cell viability), BT474. Particulars: BT-474, 72 h, BT474 cells, 72 hours of drug exposure, ATP luminescence readout, read-out: IC50, anti-proliferative activity (inhibition of cell proliferation). Type of experiment: cell-based. The text has this:
(§1) In vitro Tumor Cell Proliferation Assay
(§2) The tumor cell proliferation assay used to test the compounds of the present invention involves a readout called Cell Titer-Glow® Luminescent Cell Viability Assay developed by Promega® (Cunningham, B A “A Growing Issue: Cell Proliferation Assays, Modern kits ease quantification of cell growth” The Scientist 2001, 15(13), 26, and Crouch, S P et al., “The use of ATP bioluminescence as a measure of cell proliferation and cytotoxicity” Journal of Immunological Methods 1993, 160, 81-88), that measures inhibition of cell proliferation. Generation of a luminescent signal corresponds to the amount of ATP present, which is directly proportional to the number of metabolically active (proliferating) cells.
(§3) A431cells (human epidermoid carcinoma, ATCC […]) and BT474 (human breast carcinoma, ATCC […]) were plated at a density of 2.5×10^3 cells/well in 96 well black-clear bottom tissue culture plates in RPMI media with 10% Fetal Bovine Serum and incubated at 37° C. Twenty-four hours later, test compounds are added at a final concentration range from as high […] to as low 64 pM depend on the activities of the tested compounds in serial dilutions at a final DMSO concentration of 0.1%. Cells were incubated for 72 hours at 37° C. in complete growth media after addition of the test compound. After 72 hours of drug exposure, the plates were equilibrated to room temperature for approximately 30 min. Then, using a Promega Cell Titer Glo Luminescent® assay kit, lysis buffer containing 100 microliters of the enzyme luciferase and its substrate, luciferin mixture, was added to each well. The plates were mixed for 2 min on orbital shaker to ensure cell lysis and incubated for 10 min at room temperature to stabilize luminescence signal. The samples were read on VICTOR 2 using Luminescence protocol, and analyzed with Analyze5 software to generate IC50 values.
(In general: In ATP-based viability assays light output follows the ATP content of the culture.)

Experiment [2] deals with A431 cells (human epidermoid carcinoma). In words: In vitro tumor cell proliferation assay (Cell Titer-Glo luminescent cell viability), A431. Type of experiment: cell-based. The conditions noted are these: A-431, 72 h, 72 hours of drug exposure, ATP luminescence readout, read-out: IC50, anti-proliferative activity (inhibition of cell proliferation).
Description: as §1, §2, §3

`Fc1ccc(Nc2ncnc3sc4c(c23)CCc2nn(CCBr)cc2-4)cc1Cl` [Example 6, 2-(2-bromoethyl)-N-(3-chloro-4-fluorophenyl)-4,5-dihydro-2H-pyrimido[5′,4′:4,5]thieno[2,3-e]indazol-6-amine]: in experiment [1], the IC50 was not above 5 µM.

As for `Fc1ccc(Nc2ncnc3sc4c(c23)CCc2nn(CCN3CCNCC3)cc2-4)cc1Cl` [Example 20, N-(3-chloro-4-fluorophenyl)-2-(2-piperazin-1-ylethyl)-4,5-dihydro-2H-pyrimido[5′,4′:4,5]thieno[2,3-e]indazol-6-amine], in experiment [2], the IC50 is not above 5 µM.

Take `OC[C@@H](O)Cn1cc2c(n1)CCc1c-2sc2ncnc(Nc3ccc(F)c(Cl)c3)c12` [Example 43, (S)-3-[6-(3-Chloro-4-fluoro-phenylamino)-4,5-dihydro-10-thia-2,3,7,9-tetraaza-cyclopenta[a]fluoren-2-yl}-propane-1,2-diol]: in experiment [2], the IC50 is not above 5 µM.

In the case of `CN1CCN(CCn2cc3c(n2)CCc2c-3sc3ncnc(Nc4cccc(Cl)c4)c23)CC1` [Example 47, N-(3-chlorophenyl)-2-[2-(4-methylpiperazin-1-yl)ethyl]-4,5-dihydro-2H-pyrimido[5′,4′:4,5]thieno[2,3-e]indazol-6-amine], in experiment [2], the IC50 was not above 5 µM.

Take `Fc1cccc(COc2ccc(Nc3ncnc4sc5c(c34)CCc3c-5cnn3CCBr)cc2Cl)c1` [Example 81, 3-(2-bromoethyl)-N-{3-chloro-4-[(3-fluorobenzyl)oxy]phenyl}-4,5-dihydro-3H-pyrimido[5′,4′:4,5]thieno[2,3-e]indazol-6-amine]: the IC50 in experiment [2] was not above 50 µM.

As for `CN(C)[C@H]1CCN(C[C@@H](O)Cn2cc3c(n2)CCc2c-3sc3ncnc(Nc4ccc(OCc5cccc(F)c5)c(Cl)c4)c23)C1` [Example 153, (2R)-1-[6-({3-chloro-4-[(3-fluorobenzyl)oxy]phenyl}amino)-4,5-dihydro-2H-pyrimido[5′,4′:4,5]thieno[2,3-e]indazol-2-yl]-3-[(3S)-3-(dimethylamino)pyrrolidin-1-yl]propan-2-ol trilfluoroacetate (salt)], in experiment [1], the IC50 was not above 1 µM.

Take `O=C(CCl)N1CCC(Cn2cc3c(n2)CCc2c-3sc3ncnc(Nc4ccc(OCc5cccc(F)c5)c(Cl)c4)c23)CC1` [Example 233, 2-{[1-(chloroacetyl)piperidin-4-yl]methyl}-N-{3-chloro-4-[(3-fluorobenzyl)oxy]phenyl}-4,5-dihydro-2H-pyrimido[5′,4′:4,5]thieno[2,3-e]indazol-6-amine trifluoroacetate]: the IC50 in experiment [1] is not above 1 µM.

On to `CC(C)(C)OC(=O)N1CCC(CCn2cc3c(n2)CCc2c-3sc3ncnc(Nc4ccc(OCc5cccc(F)c5)c(Cl)c4)c23)CC1` [Example 246, tert-butyl 4-{2-[6-({3-chloro-4-[(3-fluorobenzyl)oxy]phenyl}amino)-4,5-dihydro-2H-pyrimido[5′,4′:4,5]thieno[2,3-e]indazol-2-yl]ethyl}piperidine-1-carboxylate], for which, in experiment [1], the IC50 is not above 5 µM.

`CN1CCN(CCn2cc3c(n2)CCc2c-3sc3ncnc(Nc4ccc(OCc5cscn5)c(Cl)c4)c23)CC1` [Example 347, N-[3-chloro-4-(1,3-thiazol-4-ylmethoxy)phenyl]-2-[2-(4-methylpiperazin-1-yl)ethyl]-4,5-dihydro-2H-pyrimido[5′,4′:4,5]thieno[2,3-e]indazol-6-amine bis(trifluoroacetate)]: in experiment [2], the IC50 was not above 50 µM.

For the compound `CN1CCN(CCn2cc3c(n2)CCc2c-3sc3ncnc(Nc4ccc(Cc5cccnc5)cc4)c23)CC1` [Example 348, 2-[2-(4-methylpiperazin-1-yl)ethyl]-N-[4-(pyridin-3-ylmethyl)phenyl]-4,5-dihydro-2H-pyrimido[5′,4′:4,5]thieno[2,3-e]indazol-6-amine], the IC50 in experiment [2] was not above 50 µM.

For the compound `OC[C@H](O)Cn1cc2c(n1)CCc1c-2sc2ncnc(Nc3ccc(OCc4ccccn4)c(Cl)c3)c12` [Example 350, 3-(6-{[3-chloro-4-(pyridin-2-ylmethoxy)phenyl]amino}-4,5-dihydro-2H-pyrimido[5′,4′:4,5]thieno[2,3-e]indazol-2-yl)propane-1,2-diol], the IC50 in experiment [2] was not above 5 µM.

Consider `OC[C@@H](O)Cn1cc2c(n1)CCc1c-2sc2ncnc(Nc3ccc(OCc4ccccn4)c(Cl)c3)c12` [Example 351, (2S)-3-(6-{[3-chloro-4-(pyridin-2-ylmethoxy)phenyl]amino}-4,5-dihydro-2H-pyrimido[5′,4′:4,5]thieno[2,3-e]indazol-2-yl)propane-1,2-diol], for which the IC50 in experiment [2] is not above 5 µM.

In the case of `Cc1cccc(COc2ccc(Nc3ncnc4sc5c(c34)CCc3nn(C[C@@H](O)CO)cc3-5)cc2Cl)n1` [Example 352, (2R)-3-[6-({3-chloro-4-[(6-methylpyridin-2-yl)methoxy]phenyl}amino)-4,5-dihydro-2H-pyrimido[5′,4′:4,5]thieno[2,3-e]indazol-2-yl]propane-1,2-diol], the IC50 in experiment [2] is not above 50 µM.

Regarding `OC[C@H](O)Cn1cc2c(n1)CCc1c-2sc2ncnc(Nc3ccc4c(cnn4Cc4ccccc4)c3)c12` [Example 353, (2R)-3-{6-[(1-benzyl-1H-indazol-5-yl)amino]-4,5-dihydro-2H-pyrimido[5′,4′:4,5]thieno[2,3-e]indazol-2-yl}propane-1,2-diol], the IC50 in experiment [2] was not above 5 µM.

Take `OC[C@H](O)Cn1cc2c(n1)CCc1c-2sc2ncnc(Nc3ccc4c(cnn4Cc4cccc(F)c4)c3)c12` [Example 354, (2R)-3-(6-{[1-(3-fluorobenzyl)-1H-indazol-5-yl]amino}-4,5-dihydro-2H-pyrimido[5′,4′:4,5]thieno[2,3-e]indazol-2-yl)propane-1,2-diol]: the IC50 in experiment [2] was not above 5 µM.

In the case of `OC[C@H](O)Cn1cc2c(n1)CCc1c-2sc2ncnc(Nc3ccc(OCc4ccccc4)c(Cl)c3)c12` [Example 355, (2R)-3-(6-{[4-(benzyloxy)-3-chlorophenyl]amino}-4,5-dihydro-2H-pyrimido[5′,4′:4,5]thieno[2,3-e]indazol-2-yl)propane-1,2-diol], the IC50 in experiment [2] is not above 5 µM.

With `OC[C@@H](O)Cn1cc2c(n1)CCc1c-2sc2ncnc(Nc3ccc4c(cnn4Cc4cccc(F)c4)c3)c12` [Example 356, (2S)-3-(6-{[1-(3-fluorobenzyl)-1H-indazol-5-yl]amino}-4,5-dihydro-2H-pyrimido[5′,4′:4,5]thieno[2,3-e]indazol-2-yl)propane-1,2-diol], the IC50 in experiment [2] is not above 5 µM.

As to `OC[C@@H](O)Cn1cc2c(n1)CCc1c-2sc2ncnc(Nc3ccc(OCc4ccccc4)c(Cl)c3)c12` [Example 357, (2S)-3-(6-{[4-(benzyloxy)-3-chlorophenyl]amino}-4,5-dihydro-2H-pyrimido[5′,4′:4,5]thieno[2,3-e]indazol-2-yl)propane-1,2-diol], the IC50 in experiment [2] was not above 5 µM.

For `OC[C@@H](O)Cn1cc2c(n1)CCc1c-2sc2ncnc(Nc3ccc4c(cnn4Cc4ccccc4)c3)c12` [Example 358, (2S)-3-{6-[(1-benzyl-1H-indazol-5-yl)amino]-4,5-dihydro-2H-pyrimido[5′,4′:4,5]thieno[2,3-e]indazol-2-yl}propane-1,2-diol], in experiment [2], the IC50 was not above 5 µM.

`Cc1cccc(COc2ccc(Nc3ncnc4sc5c(c34)CCc3nn(C[C@H](O)CO)cc3-5)cc2Cl)n1` [Example 359, (2S)-3-[6-({3-chloro-4-[(6-methylpyridin-2-yl)methoxy]phenyl}amino)-4,5-dihydro-2H-pyrimido[5′,4′:4,5]thieno[2,3-e]indazol-2-yl]propane-1,2-diol]: in experiment [2], the IC50 was not above 50 µM.

For the compound `OCC(CO)n1cc2c(n1)CCc1c-2sc2ncnc(Nc3ccc(OCc4cccc(F)c4)c(Cl)c3)c12` [Example 360, 2-[6-({3-chloro-4-[(3-fluorobenzyl)oxy]phenyl}amino)-4,5-dihydro-2H-pyrimido[5′,4′:4,5]thieno[2,3-e]indazol-2-yl]propane-1,3-diol], the IC50 in experiment [2] is not above 5 µM.

`OCC(CO)n1ncc2c1CCc1c-2sc2ncnc(Nc3ccc(OCc4cccc(F)c4)c(Cl)c3)c12` [Example 361, 2-[6-({3-chloro-4-[(3-fluorobenzyl)oxy]phenyl}amino)-4,5-dihydro-3H-pyrimido[5′,4′:4,5]thieno[2,3-e]indazol-3-yl)propane-1,3-diol]: the IC50 in experiment [2] was not above 50 µM.

For `OCC(CO)n1ncc2c1CCc1c-2sc2ncnc(Nc3ccc4c(cnn4Cc4cccc(F)c4)c3)c12` [Example 362, 2-(6-{[1-(3-fluorobenzyl)-1H-indazol-5-yl]-amino}-4,5-dihydro-3H-pyrimido[5′,4′:4,5]thieno[2,3-e]indazol-3-yl)propane-1,3-diol], the IC50 in experiment [2] is not above 5 µM.

With `OCC(CO)n1cc2c(n1)CCc1c-2sc2ncnc(Nc3ccc4c(cnn4Cc4cccc(F)c4)c3)c12` [Example 363, 2-(6-{[1-(3-fluorobenzyl)-1H-indazol-5-yl]amino}-4,5-dihydro-2H-pyrimido[5′,4′:4,5]thieno[2,3-e]indazol-2-yl)propane-1,3-diol], in experiment [2], the IC50 is not above 5 µM.

The values above are taken from patent US8207172B2 (Bayer Intellectual Property GmbH, priority 2004, dated 2012).
